Assay results reported in patent publication US4443436A, “C-20-Modified macrolide derivatives of the macrolide antibiotics tylosin, desmycosin, macrocin, and lactenocin” (Eli Lilly and Company, priority 1982, dated 1984).
In brackets after ≈: the same amount, converted by molar mass. Like-named read-outs stand apart in the source and are kept apart here.

What was measured:
[1] = system: Pasteurella multocida 60A; test: MIC, broth-dilution microtiter test, Pasteurella multocida 60A; type: cell-based
Excerpt: (§1) The MIC's in Table X were obtained using conventional broth-dilution microtiter tests.

[2] = system: Staphylococcus epidermidis EPI2; test: MIC, standard agar-dilution assay, Staphylococcus epidermidis EPI2; type: cell-based
Streptococcus bovis 80 = test: MIC, broth-dilution microtiter test, Streptococcus bovis 80; type: cell-based
Excerpt: as §1

Mycoplasma synoviae = test: MIC, broth-dilution microtiter test, Mycoplasma synoviae; type: cell-based
Excerpt: as §1

[3] = system: Streptococcus Group D X66; test: MIC, standard agar-dilution assay, Streptococcus Group D X66; type: cell-based
[4] = system: Streptococcus pneumoniae Park I; test: microbe, parasite or virus in culture; type: cell-based
[5] = system: Staphylococcus aureus S13E; test: MIC, standard agar-dilution assay, Staphylococcus aureus S13E; type: cell-based
Mycoplasma hyorhinis = test: MIC, broth-dilution microtiter test, Mycoplasma hyorhinis; type: cell-based
Excerpt: as §1

[6] = system: Pasteurella multocida 17E; test: MIC, broth-dilution microtiter test, Pasteurella multocida 17E; type: cell-based
Excerpt: as §1

[7] = system: Staphylococcus aureus X1.1; test: MIC, standard agar-dilution assay, Staphylococcus aureus X1.1; type: cell-based
Mycoplasma gallisepticum = test: MIC, broth-dilution microtiter test, Mycoplasma gallisepticum; type: cell-based
Excerpt: as §1

[8] = system: Staphylococcus epidermidis EPI1; test: MIC, standard agar-dilution assay, Staphylococcus epidermidis EPI1; type: cell-based
[9] = system: Staphylococcus aureus V41; test: MIC, standard agar-dilution assay, Staphylococcus aureus V41; type: cell-based
[10] = system: Staphylococcus aureus X400; test: MIC, standard agar-dilution assay, Staphylococcus aureus X400; type: cell-based
Staphylococcus aureus = test: MIC, broth-dilution microtiter test, Staphylococcus aureus; type: cell-based
Excerpt: as §1

[11] = system: Streptococcus pyogenes C203; test: MIC, standard agar-dilution assay, Streptococcus pyogenes C203; type: cell-based
[12] = system: Pasteurella hemolytica 22C; test: MIC, broth-dilution microtiter test, Pasteurella hemolytica 22C; type: cell-based
Excerpt: as §1

[13] = system: Haemophilus influenzae Holt; test: MIC, standard agar-dilution assay, Haemophilus influenzae Holt; type: cell-based
[14] = system: Haemophilus influenzae R252; test: MIC, standard agar-dilution assay, Haemophilus influenzae R252; type: cell-based; conditions: Haemophilus influenzae R252, ampicillin-resistant strain
Streptococcus Group 9960 = test: MIC, standard agar-dilution assay, Streptococcus Group 9960; type: cell-based; conditions: Streptococcus Group 9960, agar dilution
[15] = system: Streptococcus pyogenes C203; test: In vivo protection of mice experimentally infected with S. pyogenes C203; conditions: mice, doses given 1 and 4 hours post-infection; for ED50: Streptococcus pyogenes
Experimental: The C-20 modified derivatives of this invention have shown in vivo antimicrobial activity against experimentally-induced infections in laboratory animals. When two doses of test compound were administered to mice experimentally infected with S. pyogenes C203, the activity observed was measured as an ED50 value [effective dose in mg/kg to protect 50% of the test animals: see Warren Wick, et al., J. Bacteriol. 81, 233-235 (1961)].

[16] = Pasteurella multocida 60A, avian isolate, broth-dilution microtiter, read-out: MIC
[17] = Staphylococcus epidermidis, EPI2
[18] = Mycoplasma hyorhinis, broth-dilution microtiter, read-out: MIC
[19] = Pasteurella multocida 17E, bovine isolate, broth-dilution microtiter, read-out: MIC
[20] = Mycoplasmoides gallisepticum, Mycoplasma gallisepticum, broth-dilution microtiter, read-out: MIC
[21] = Staphylococcus epidermidis, EPI1
[22] = Pasteurella hemolytica 22C, broth-dilution microtiter, read-out: MIC
[23] = Streptococcus Group D X66, agar dilution, read-out: MIC
[24] = C203, oral, read-out: ED50, Oral

## CCC1OC(=O)CC(O)C(C)C(OC2OC(C)C(OC3CC(C)(O)C(O)C(C)O3)C(N(C)C)C2O)C(CCOC(=O)COc2ccccc2)CC(C)C(=O)C=CC(C)=CC1COC1OC(C)C(O)C(OC)C1OC (centres unmarked) [Compound 11, 20-DH-20-O-(Phenoxyacetyl)tylosin]
[1]; [16]
  MIC: > 50 µg/mL
[2]; [17]
  MIC: 0.5 µg/mL (≈ 0.475 µM)
Streptococcus bovis 80; Streptococcus equinus, Streptococcus bovis 80, broth-dilution microtiter, read-out: MIC
  MIC: 3.12 µg/mL (≈ 2.97 µM)
Mycoplasma synoviae; Mycoplasmopsis synoviae, Mycoplasma synoviae, broth-dilution microtiter, read-out: MIC
  MIC: 3.12 µg/mL (≈ 2.97 µM)
[3]
  MIC: 8 µg/mL (≈ 7.6 µM)
[4]; Streptococcus pneumoniae
  MIC: 0.5 µg/mL (≈ 0.475 µM)
[5]; Staphylococcus aureus, S13E
  MIC: 0.5 µg/mL (≈ 0.475 µM)
Mycoplasma hyorhinis; [18]
  MIC: > 50 µg/mL
[6]; [19]
  MIC: > 50 µg/mL
[7]; Staphylococcus aureus, X1.1
  MIC: 0.5 µg/mL (≈ 0.475 µM)
Mycoplasma gallisepticum; [20]
  MIC: 1.56 µg/mL (≈ 1.48 µM)
[8]; [21]
  MIC: 0.5 µg/mL (≈ 0.475 µM)
[9]; Staphylococcus aureus, V41
  MIC: 0.5 µg/mL (≈ 0.475 µM)
[10]; Staphylococcus aureus, X400
  MIC: 1 µg/mL (≈ 0.95 µM)
Staphylococcus aureus; broth-dilution microtiter, read-out: MIC
  MIC: 1.56 µg/mL (≈ 1.48 µM)
[11]; Streptococcus pyogenes, C203
  MIC: 0.5 µg/mL (≈ 0.475 µM)
[12]; [22]
  MIC: > 50 µg/mL
[13]; Haemophilus influenzae
  MIC: > 128 µg/mL
[14]; read-out: MIC
  MIC: > 128 µg/mL
Streptococcus Group 9960; GROUP9960, read-out: MIC
  MIC: 8 µg/mL (≈ 7.6 µM)

## CCOC(=O)c1ccc(OCCC2CC(C)C(=O)C=CC(C)=CC(COC3OC(C)C(O)C(OC)C3OC)C(CC)OC(=O)CC(O)C(C)C2OC2OC(C)C(O)C(N(C)C)C2O)cc1 (centres unmarked) [Compound 38, 20-DH-20-O-[p-(Ethoxycarbonyl)phenyl]desmycosin]
[1]; Pasteurella multocida, 60A
  MIC: 50 µg/mL (≈ 54.2 µM)
[2]; [17]
  MIC: 0.25 µg/mL (≈ 0.271 µM)
Streptococcus bovis 80; Streptococcus equinus, 80
  MIC: 0.78 µg/mL (≈ 0.846 µM)
Mycoplasma synoviae; Mycoplasmopsis synoviae
  MIC: 1.56 µg/mL (≈ 1.69 µM)
[3]; [23]
  MIC: 8 µg/mL (≈ 8.68 µM)
[4]; Streptococcus pneumoniae
  MIC: 1 µg/mL (≈ 1.08 µM)
[5]; Staphylococcus aureus, S13E
  MIC: 0.5 µg/mL (≈ 0.542 µM)
Mycoplasma hyorhinis; [18]
  MIC: 25 µg/mL (≈ 27.1 µM)
[6]; [19]
  MIC: 25 µg/mL (≈ 27.1 µM)
[7]; Staphylococcus aureus, X1.1
  MIC: 0.5 µg/mL (≈ 0.542 µM)
Mycoplasma gallisepticum; [20]
  MIC: 0.39 µg/mL (≈ 0.423 µM)
[8]; [21]
  MIC: 0.5 µg/mL (≈ 0.542 µM)
[9]; Staphylococcus aureus, V41
  MIC: 0.5 µg/mL (≈ 0.542 µM)
[10]; Staphylococcus aureus, X400
  MIC: 0.5 µg/mL (≈ 0.542 µM)
[15]; C203, sc, subcutaneous, read-out: ED50, Subcutaneous
  ED50: > 10 mg/kg
[15]; [24]
  ED50: 35 mg/kg
Staphylococcus aureus
  MIC: 0.78 µg/mL (≈ 0.846 µM)
[11]; Streptococcus pyogenes, C203
  MIC: 0.5 µg/mL (≈ 0.542 µM)
[12]; Pasteurella, 22C
  MIC: 50 µg/mL (≈ 54.2 µM)
[13]; Haemophilus influenzae
  MIC: 16 µg/mL (≈ 17.4 µM)
Streptococcus Group 9960; GROUP9960, read-out: MIC
  MIC: 16 µg/mL (≈ 17.4 µM)

## CCC1OC(=O)CC(O)C(C)C(OC2OC(C)C(O)C(N(C)C)C2O)C(CCOc2ccc(CN3CCCCCC3)cc2)CC(C)C(=O)C=CC(C)=CC1COC1OC(C)C(O)C(OC)C1OC (centres unmarked) [Compound 42, 20-DH-20-O-[p-(Hexahydroazepin-1-ylmethyl)phenyl]desmycosin]
[1]; Pasteurella multocida 60A, avian isolate, broth-dilution microtiter
  MIC: 12.5 µg/mL (≈ 13 µM)
[2]; Staphylococcus epidermidis EPI2, agar dilution
  MIC: 0.25 µg/mL (≈ 0.26 µM)
Streptococcus bovis 80; Streptococcus bovis 80, broth-dilution microtiter
  MIC: 3.12 µg/mL (≈ 3.25 µM)
Mycoplasma synoviae; Mycoplasma synoviae, broth-dilution microtiter
  MIC: 0.195 µg/mL (≈ 0.203 µM)
[3]; Streptococcus Group D X66, agar dilution
  MIC: 8 µg/mL (≈ 8.32 µM)
[5]; Staphylococcus aureus S13E, agar dilution
  MIC: 0.5 µg/mL (≈ 0.52 µM)
Mycoplasma hyorhinis; Mycoplasma hyorhinis, broth-dilution microtiter
  MIC: 25 µg/mL (≈ 26 µM)
[6]; Pasteurella multocida 17E, bovine isolate, broth-dilution microtiter
  MIC: 12.5 µg/mL (≈ 13 µM)
[7]; Staphylococcus aureus X1.1, agar dilution
  MIC: 0.5 µg/mL (≈ 0.52 µM)
Mycoplasma gallisepticum; Mycoplasma gallisepticum, broth-dilution microtiter
  MIC: 0.39 µg/mL (≈ 0.406 µM)
[8]; Staphylococcus epidermidis EPI1, agar dilution
  MIC: 0.5 µg/mL (≈ 0.52 µM)
[9]; Staphylococcus aureus V41, penicillin-resistant strain, agar dilution
  MIC: 0.1 µg/mL (≈ 0.104 µM)
[10]; Staphylococcus aureus X400, methicillin-resistant strain, agar dilution
  MIC: 1 µg/mL (≈ 1.04 µM)
[15]; oral
  ED50, Oral: > 100 mg/kg × 2
[15]; subcutaneous
  ED50, Subcutaneous: > 25 mg/kg × 2
Staphylococcus aureus; broth-dilution microtiter
  MIC: 1.56 µg/mL (≈ 1.62 µM)
[11]; Streptococcus pyogenes C203, agar dilution
  MIC: 0.5 µg/mL (≈ 0.52 µM)
[12]; Pasteurella hemolytica 22C, broth-dilution microtiter
  MIC: 12.5 µg/mL (≈ 13 µM)
[13]; Haemophilus influenzae Holt, ampicillin-sensitive strain, agar dilution
  MIC: 32 µg/mL (≈ 33.3 µM)
[14]; agar dilution
  MIC: 32 µg/mL (≈ 33.3 µM)
Streptococcus Group 9960
  MIC: 8 µg/mL (≈ 8.32 µM)

## CCC1OC(=O)CC(O)C(C)C(OC2OC(C)C(OC3CC(C)(O)C(O)C(C)O3)C(N(C)C)C2O)C(C)CC(C)C(=O)C=CC(C)=CC1COC1OC(C)C(O)C(O)C1OC (centres unmarked) [Compound 54, 20-Deformylmacrocin]
[1]; [16]
  MIC: > 50 µg/mL
[2]; [17]
  MIC: 2 µg/mL (≈ 2.29 µM)
Streptococcus bovis 80; Streptococcus equinus, 80
  MIC: 6.25 µg/mL (≈ 7.15 µM)
Mycoplasma synoviae; Mycoplasmopsis synoviae
  MIC: 1.56 µg/mL (≈ 1.78 µM)
[3]; [23]
  MIC: 128 µg/mL (≈ 146 µM)
[4]; Streptococcus pneumoniae Park I, agar dilution, read-out: MIC
  MIC: 64 µg/mL (≈ 73.2 µM)
[5]; Staphylococcus aureus, S13E
  MIC: 2 µg/mL (≈ 2.29 µM)
Mycoplasma hyorhinis; Mycoplasma
  MIC: 25 µg/mL (≈ 28.6 µM)
[6]; Pasteurella multocida, 17E
  MIC: > 50 µg/mL
[7]; Staphylococcus aureus, X1.1
  MIC: 2 µg/mL (≈ 2.29 µM)
Mycoplasma gallisepticum; Mycoplasmoides gallisepticum
  MIC: 0.78 µg/mL (≈ 0.892 µM)
[8]; [21]
  MIC: 2 µg/mL (≈ 2.29 µM)
[9]; Staphylococcus aureus, V41
  MIC: 1 µg/mL (≈ 1.14 µM)
[10]; Staphylococcus aureus, X400
  MIC: 2 µg/mL (≈ 2.29 µM)
[15]; [24]
  ED50: 31 mg/kg
Staphylococcus aureus
  MIC: 3.12 µg/mL (≈ 3.57 µM)
[11]; Streptococcus pyogenes, C203
  MIC: 2 µg/mL (≈ 2.29 µM)
[12]; [22]
  MIC: > 50 µg/mL
[13]; Haemophilus influenzae Holt, ampicillin-sensitive strain, read-out: MIC
  MIC: > 128 µg/mL
[14]; read-out: MIC
  MIC: > 128 µg/mL
Streptococcus Group 9960; GROUP9960, read-out: MIC
  MIC: 28 µg/mL (≈ 32 µM)
